Consider 1 compound from patent US20200000756A1, “NEOSTIGMINE COMBINATION AND COMPOSITIONS” (priority 2017, published 2020).

Entries after “also recorded” stand apart in the source; their conditions may differ.

This data set is described as follows: Phase I single-blind study: single oral doses of neostigmine bromide with or without a single oral dose of ondansetron hydrochloride dihydrate. Format: in vivo. The note with it: six human subjects. On the procedure: The ability of the 5HT3-antagonists for preventing the gastro-intestinal adverse effects of orally administered neostigmine bromide in humans was tested.
A Phase I study was conducted in six human subjects receiving a single oral dose of neostigmine bromide with or without a single oral dose of ondansetron hydrochloride dihydrate, as a representative 5HT3-antagonist. The study was a single center, single-blind.
To be enrolled in the study, participants (aged 18 to 60 years of age) were required, to refrain from consuming xanthine, quinine and caffeine containing beverages, and to refrain from prolonged intensive physical exercise during the study conduct. […] The key criteria for exclusion of a subject from enrollment in the study were as follows:
any clinically relevant acute or chronic disease which could interfere with the subjects' safety during the trial, expose them to undue risk, or interfere with the study objectives; history or presence of gastrointestinal, hepatic, or renal disease or other condition known to interfere with the absorption, distribution, metabolism or excretion of drugs; history of substance abuse, known drug addiction, or positive test for drugs of abuse or alcohol; history of drug or other significant allergy; ECG changes including QT interval prolongation and congenital long QT syndrome. […]

For the compound `Cc1nccn1CC1CCc2c(c3ccccc3n2C)C1=O` (racemic) [ondansetron, (±) 1,2,3,9-tetrahydro-9-methyl-3-[(2-methyl-1H-imidazol-1-yl)methyl]-4H-carbazol-4-one], the “neostigmine dose reached before second intolerable dose (FID-2) on co-administration of ondansetron” value (neostigmine dose escalated together with oral ondansetron hydrochloride dihydrate 10 mg (8 mg base)) is listed as “enabled subjects to reach neostigmine doses as high as or higher than the recommended efficacious dose for the treatment of MG”. For the same compound, the “gastro-intestinal AEs of neostigmine on co-administration of ondansetron” value (single oral ondansetron hydrochloride dihydrate 10 mg (equivalent to 8 mg ondansetron base) with oral neostigmine bromide at the first intolerable dose and above) was “attenuated gastro-intestinal AEs reported with neostigmine alone; also recorded: prevented the occurrence of gastro-intestinal AEs”.
